# Source: EP0366638A2, “Neuromodulatory peptide” (KabiGen AB, priority 1988, dated 1990)
# Experiments:
# cortical brain slices = assay: release of acetylcholine from cortical brain slices; format: cell-based; conditions: following depolarization, Fig. 1
# Source text: The tripeptide resulting from the manufacture according to Example 1 above was used in a test system according to L. Nilsson, V.R. Sara and A. Nordberg, Neurosience Letters, 1988, Vol. 88, pp 221-226. This test procedure is based on stimulation of the release of acetylcholine from cortical brain slices.
# cortical neurones = assay: modulation of the electrophysiological activity of cortical neurones (microiontophoresis and pressure ejection procedure); conditions: Fig. 2
# Source text: The tripeptide from Example 1 above was used in modulation of the electrophysiological activity of cortical neurones, and the results of this experiment is illustrated in Fig. 2. […] In this experiment the procedure according to T.W. Stone (Ed.), "Microiontophonesis and pressure ejection", John Wiley & Sons, New York, 1985 was used.
# spinal cord = assay: electrophysiological reflex response in the spinal cord; format: in vivo
# Source text: The result of these experiments is shown in Fig. 3, from which it is clear that the tripeptide increases both the peak and the duration of the reflex response.
smiles,measurement,setting,value
"NCC(=O)N1CCC[C@H]1C(=O)N[C@@H](CCC(=O)O)C(=O)O [tripeptide, glycylprolylglutamic acid]",release of acetylcholine from neurones,cortical brain slices,inhance the release of acetylcholine
same,neural response to neurotransmitters,cortical neurones; cortical neurones,modulates
same,cortical neurone activity,cortical neurones; electrophysiological activity,both stimulates and inhibits
same,duration of the reflex response,spinal cord; Fig. 3,increases
same,peak of the reflex response,spinal cord; Fig. 3,increases
same,electrophysiological reflex response in the spinal cord,spinal cord; in vivo,facilitate
